The results in this text go back to patent publication US9399646B2 (Genentech, Inc., priority 2010, dated 2016).

In general, IC50 refers to the point on the concentration scale where inhibition reaches its midpoint.

Assay [1] addresses T1, ER-α in MCF-7 cells (Homo sapiens, UniProt P03372).
T1 sequence (P03372 1-595): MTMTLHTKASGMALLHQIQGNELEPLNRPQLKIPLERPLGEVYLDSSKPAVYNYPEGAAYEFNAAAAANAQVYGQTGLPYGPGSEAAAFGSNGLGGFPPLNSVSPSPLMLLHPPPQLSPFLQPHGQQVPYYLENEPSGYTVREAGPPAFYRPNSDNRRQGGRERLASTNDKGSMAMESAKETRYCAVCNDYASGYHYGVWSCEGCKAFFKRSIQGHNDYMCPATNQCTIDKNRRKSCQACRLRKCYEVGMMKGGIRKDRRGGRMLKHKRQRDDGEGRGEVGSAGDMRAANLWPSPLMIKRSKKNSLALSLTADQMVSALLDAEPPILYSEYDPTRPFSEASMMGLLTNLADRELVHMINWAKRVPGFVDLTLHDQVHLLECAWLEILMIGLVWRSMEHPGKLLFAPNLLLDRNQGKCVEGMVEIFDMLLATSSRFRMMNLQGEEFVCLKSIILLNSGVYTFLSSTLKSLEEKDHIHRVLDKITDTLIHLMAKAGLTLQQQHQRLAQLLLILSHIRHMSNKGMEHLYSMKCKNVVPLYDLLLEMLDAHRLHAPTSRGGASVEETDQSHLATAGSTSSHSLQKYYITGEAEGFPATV
Nature of the assay: Breast cancer cell ER-α in cell western assay (SP1). The assay is classed as cell-based. Also noted: endogenous in cells; host or cells: MCF-7. The note with it: 4 or 24 hr post compound addition; for Emax: MCF7, SP1 antibody, read-out: ER-α In Cell Western Assay (SP1) Max Response; for DC50: SP1 antibody, read-out: ER-α In Cell Western Assay (SP1) IC50. In outline: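 Fixed cells were immunostained with SP1 anti-ER antibody; ER signal (800 nm) was normalized to DRAQ5 DNA signal (700 nm) and expressed as % of untreated cells.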

The subject of assay [2] is MCF-7 cells. Kind of assay: Breast cancer cell viability assay (CellTiter-Glo, 5 days). It is filed as cell-based. As to conditions: 5 days' compound exposure; for IC50: Homo sapiens, MCF7, 120 h. In outline:
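MCF-7 cells, 320 per well in RPMI with 10% FBS and 20 mM HEPES, adhered overnight, then exposed 5 days to an eleven-point semilog dilution (final 0.3-0.000003 μM). CellTiter-Glo luminescence read; % viability = (sample − cell-free background)/(untreated − background) × 100.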

Structures are written as SMILES. Bounds are passed on as bounds.

As for `O=C(O)/C=C/c1ccc(/C(=C(\c2ccc(F)cc2Cl)C2CCC2)c2ccc3scnc3c2)cc1` [Compound 278, (E)-3-(4-((E)-1-(Benzo[d]thiazol-5-yl)-2-(2-chloro-4-fluorophenyl)-2-cyclobutylvinyl)phenyl)acrylic acid], in assay [1], the Emax is at least 40% and the DC50 is at most 100 nM. In assay [2], the “MCF7 Viability Assay Max Response” value was “++ (++ = a single % value ≧ 40%)” and the IC50 was at most 100 nM.
Take `CC/C(=C(/c1ccc(/C=C/C(=O)O)cc1)c1cc2ccccc2s1)c1ccccc1` [Compound 142, (E)-3-(4-((E)-1-(Benzo[b]thiophen-2-yl)-2-phenylbut-1-en-1-yl)phenyl)acrylic acid]: in assay [1], the Emax is at least 40% and the DC50 was at most 100 nM. Besides, in assay [2], the “MCF7 Viability Assay Max Response” value is on record as “++ (++ = a single % value ≧ 40%)” and the IC50 was at most 100 nM.
Take `CC/C(=C(/c1ccc(/C=C/C(=O)O)cc1)c1ccc2[nH]ncc2c1F)c1cccc(OC2CCN(C)CC2)c1` [Compound 343, (E)-3-(4-((E)-1-(4-Fluoro-1H-indazol-5-yl)-2-(3-((1-methylpiperidin-4-yl)oxy)phenyl)but-1-en-1-yl)phenyl)acrylic acid]: in assay [1], the Emax was at least 40% and the DC50 is above 100 nM. In assay [2], the “MCF7 Viability Assay Max Response” value is “++ (++ = a single % value ≧ 40%)” and the IC50 is above 100 nM.
Take `CC/C(=C(/c1ccc(/C=C/C(=O)O)cc1)c1ccc2ncccc2c1)c1ccc(F)cc1` [Compound 118, (E)-3-(4-((E)-2-(4-Fluorophenyl)-1-(quinolin-6-yl)but-1-en-1-yl)phenyl)acrylic acid]: in assay [1], the Emax was at least 40% and the DC50 was above 100 nM. Besides, in assay [2], the “MCF7 Viability Assay Max Response” value is “++ (++ = a single % value ≧ 40%)” and the IC50 is above 100 nM.
As to `CC/C(=C(/c1ccc(/C=C/C(=O)O)cc1)c1ccc2[nH]ncc2c1)c1ccc(Oc2cccnc2)cc1` [Compound 292, (E)-3-(4-((E)-1-(1H-Indazol-5-yl)-2-(4-(pyridin-3-yloxy)phenyl)but-1-en-1-yl)phenyl)acrylic acid], in assay [1], the Emax is at least 40% and the DC50 was at most 100 nM. For the same molecule, in assay [2], the “MCF7 Viability Assay Max Response” value is listed as “++ (++ = a single % value ≧ 40%)” and the IC50 is at most 100 nM.
Regarding `CC/C(=C(/c1ccc(/C=C/S(N)(=O)=O)cc1)c1ccc2[nH]ncc2c1)c1ccccc1` [Compound 452, (E)-2-(4-((E)-1-(1H-Indazol-5-yl)-2-phenylbut-1-en-1-yl)phenyl)ethenesulfonamide], in assay [1], the Emax is at least 40% and the DC50 was at most 100 nM. Besides, in assay [2], the “MCF7 Viability Assay Max Response” value was “++ (++ = a single % value ≧ 40%)” and the IC50 was at most 100 nM.
Turning to `CC/C(=C(/c1ccc(/C=C/C(=O)O)cc1)c1ccc2nccn2c1)c1ccc(F)cc1C(F)(F)F` [Compound 233, (E)-3-(4-((E)-2-(4-Fluoro-2-(trifluoromethyl)phenyl)-1-(imidazo[1,2-a]pyridin-6-yl)but-1-en-1-yl)phenyl)acrylic acid], in assay [1], the Emax was at least 40% and the DC50 was at most 100 nM. For the same molecule, in assay [2], the “MCF7 Viability Assay Max Response” value is reported as “++ (++ = a single % value ≧ 40%)” and the IC50 is at most 100 nM.
On to `CC/C(=C(/c1ccc(/C=C/C(=O)O)cc1)c1cccc2[nH]ncc12)c1ccccc1` [Compound 18, (E)-3-(4-((E)-1-(1H-Indazol-4-yl)-2-phenylbut-1-en-1-yl)phenyl)acrylic acid], for which the Emax in assay [1] was at least 40%. In assay [2], the “MCF7 Viability Assay Max Response” value is given as “++ (++ = a single % value ≧ 40%)” and the IC50 was at most 100 nM.
`CC/C(=C(/c1ccc(/C=C/C(=O)O)cc1)c1ccc2[nH]ncc2c1)c1cccc(Oc2ccc(S(C)(=O)=O)nc2)c1` [Compound 380, (E)-3-(4-((E)-1-(1H-Indazol-5-yl)-2-(3-((6-(methylsulfonyl)pyridin-3-yl)oxy)phenyl)but-1-en-1-yl)phenyl)acrylic acid]: in assay [1], the Emax was at least 40% and the DC50 is at most 100 nM. In addition, in assay [2], the “MCF7 Viability Assay Max Response” value is on record as “++ (++ = a single % value ≧ 40%)” and the IC50 was above 100 nM.
As for `CC/C(=C(/c1ccc(/C=C/c2nn[nH]n2)cc1)c1ccc2scnc2c1)c1ccncc1Cl` [Compound 446, 5-((E)-1-(4-((E)-2-(2H-Tetrazol-5-yl)vinyl)phenyl)-2-(3-chloropyridin-4-yl)but-1-en-1-yl)benzo[d]thiazole], in assay [1], the Emax was at least 40% and the DC50 was at most 100 nM. Moreover, in assay [2], the “MCF7 Viability Assay Max Response” value was “++ (++ = a single % value ≧ 40%)” and the IC50 was at most 100 nM.
Regarding `CC/C(=C(/c1ccc(/C=C/c2noc(=O)[nH]2)cc1)c1ccc2[nH]ncc2c1)c1ccc(F)cc1Cl` [Compound 437, 3-((E)-4-((E)-2-(2-Chloro-4-fluorophenyl)-1-(1H-indazol-5-yl)but-1-en-1-yl)styryl)-1,2,4-oxadiazol-5(4H)-one], in assay [1], the Emax is at least 40% and the DC50 is at most 100 nM. In assay [2], the “MCF7 Viability Assay Max Response” value is recorded as “++ (++ = a single % value ≧ 40%)” and the IC50 was at most 100 nM.
On to `CC/C(=C(/c1ccc(/C=C/C(=O)O)cc1)c1ccc2scnc2c1)c1cccc(Oc2ccccc2)c1` [Compound 299, (E)-3-(4-((E)-1-(Benzo[d]thiazol-5-yl)-2-(3-phenoxyphenyl)but-1-en-1-yl)phenyl)acrylic acid], for which, in assay [1], the Emax was at least 40% and the DC50 is at most 100 nM. Also, in assay [2], the “MCF7 Viability Assay Max Response” value was “++ (++ = a single % value ≧ 40%)” and the IC50 was above 100 nM.
With `CC/C(=C(/c1ccc(/C=C/C(=O)O)cc1)c1ccc2c(cnn2C(C)=O)c1)c1ccc(F)cc1Cl` [Compound 403, (E)-3-(4-((E)-1-(1-Acetyl-1H-indazol-5-yl)-2-(2-chloro-4-fluorophenyl)but-1-en-1-yl)phenyl)acrylic acid], in assay [1], the Emax is at least 40% and the DC50 is at most 100 nM. Moreover, in assay [2], the “MCF7 Viability Assay Max Response” value is recorded as “++ (++ = a single % value ≧ 40%)” and the IC50 was at most 100 nM.
On to `CC/C(=C(/c1ccc(/C=C/C(=O)O)cc1)c1ccc2ocnc2c1)c1ccccc1` [Compound 146], for which, in assay [1], the Emax was at least 40% and the DC50 is above 100 nM. Moreover, in assay [2], the “MCF7 Viability Assay Max Response” value is “++ (++ = a single % value ≧ 40%)” and the IC50 was above 100 nM.
Take `CC/C(=C(/c1ccc(/C=C/C(=O)O)cc1)c1coc2c(O)cccc12)c1ccc(F)cc1Cl` [Compound 450, (E)-3-(4-((E)-2-(2-Chloro-4-fluorophenyl)-1-(7-hydroxybenzofuran-3-yl)but-1-en-1-yl)phenyl)acrylic acid]: in assay [1], the Emax was at least 40% and the DC50 was at most 100 nM. Also, in assay [2], the “MCF7 Viability Assay Max Response” value was “++ (++ = a single % value ≧ 40%)” and the IC50 was at most 100 nM.
In the case of `CC/C(=C(/c1ccc(/C=C/C(=O)O)cc1)c1cccc2[nH]ncc12)c1ccccc1Cl` [Compound 22, (E)-3-(4-((E)-2-(2-Chlorophenyl)-1-(1H-indazol-4-yl)but-1-en-1-yl)phenyl)acrylic acid], in assay [1], the Emax is at least 40% and the DC50 was at most 100 nM. Also, in assay [2], the “MCF7 Viability Assay Max Response” value is listed as “++ (++ = a single % value ≧ 40%)” and the IC50 is at most 100 nM.
